Results reported in patent US10233173B2, “Substituted 1,2,3-triazoles as NR2B-selective NMDA modulators” (JANSSEN PHARMACEUTICA NV, priority 2016, dated 2019).

Molecular target: human GluN1/GluN2B NMDA receptors (Homo sapiens, UniProt Q05586+Q13224)
Assay: Cell-based calcium flux (FLIPR) assay on cloned human NR1/NR2B ion channels expressed in mammalian cells
Conditions: standard assay
Method in brief: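 Calcium influx followed by FLIPR fluorescence after 5 min compound exposure and a further 5 min co-agonist challenge: 10 μM glycine with glutamate at ~EC80 (standard) or EC40 (HTS).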

[1] = glutamate at ~EC80, FLIPR calcium flux
[2] = human GluN1/GluN2B, calcium flux (FLIPR), glutamate ~EC80

Chain of human GluN1/GluN2B NMDA receptors (Q13224 27-1484, other chains not shown): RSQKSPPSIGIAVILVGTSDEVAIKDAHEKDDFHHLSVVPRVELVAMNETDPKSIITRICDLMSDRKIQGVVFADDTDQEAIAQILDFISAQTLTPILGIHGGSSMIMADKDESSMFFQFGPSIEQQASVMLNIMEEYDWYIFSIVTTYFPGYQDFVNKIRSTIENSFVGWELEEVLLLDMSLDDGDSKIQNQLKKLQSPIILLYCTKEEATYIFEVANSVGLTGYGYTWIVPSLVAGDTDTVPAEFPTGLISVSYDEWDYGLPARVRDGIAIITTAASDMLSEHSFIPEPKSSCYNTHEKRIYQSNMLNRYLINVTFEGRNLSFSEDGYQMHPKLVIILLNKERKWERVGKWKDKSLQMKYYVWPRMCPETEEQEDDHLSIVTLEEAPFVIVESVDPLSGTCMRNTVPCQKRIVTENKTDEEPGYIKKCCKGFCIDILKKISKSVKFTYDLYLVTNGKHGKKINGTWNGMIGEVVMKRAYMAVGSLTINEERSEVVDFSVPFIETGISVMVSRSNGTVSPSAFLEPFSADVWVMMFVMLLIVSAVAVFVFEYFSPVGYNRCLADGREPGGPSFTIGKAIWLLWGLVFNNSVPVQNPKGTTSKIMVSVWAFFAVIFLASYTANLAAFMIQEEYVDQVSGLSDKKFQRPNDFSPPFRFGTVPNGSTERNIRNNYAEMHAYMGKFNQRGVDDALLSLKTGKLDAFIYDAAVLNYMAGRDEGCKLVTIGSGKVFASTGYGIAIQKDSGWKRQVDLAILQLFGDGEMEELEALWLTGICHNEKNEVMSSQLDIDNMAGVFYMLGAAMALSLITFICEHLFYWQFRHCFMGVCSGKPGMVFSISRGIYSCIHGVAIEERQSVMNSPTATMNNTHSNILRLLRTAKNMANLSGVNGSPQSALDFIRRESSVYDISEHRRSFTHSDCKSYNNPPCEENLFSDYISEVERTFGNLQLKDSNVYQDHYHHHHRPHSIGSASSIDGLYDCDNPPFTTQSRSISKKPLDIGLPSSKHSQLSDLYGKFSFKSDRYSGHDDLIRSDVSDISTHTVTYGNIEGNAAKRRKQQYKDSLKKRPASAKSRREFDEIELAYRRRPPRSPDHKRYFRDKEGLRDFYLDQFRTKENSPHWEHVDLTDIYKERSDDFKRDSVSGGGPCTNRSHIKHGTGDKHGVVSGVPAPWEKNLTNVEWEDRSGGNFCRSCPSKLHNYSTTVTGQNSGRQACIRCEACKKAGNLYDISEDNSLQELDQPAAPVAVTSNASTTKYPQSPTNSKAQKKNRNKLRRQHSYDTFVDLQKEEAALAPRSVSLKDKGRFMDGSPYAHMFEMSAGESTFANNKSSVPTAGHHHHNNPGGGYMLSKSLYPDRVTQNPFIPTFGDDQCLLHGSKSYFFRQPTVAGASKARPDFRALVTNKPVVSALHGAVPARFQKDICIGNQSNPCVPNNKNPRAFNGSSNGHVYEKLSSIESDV

Work on `Cc1cnc(OCc2nnn(-c3cccc(C(F)F)c3)c2C)nc1C` [Example 528, 2-[[1-[3-(Difluoromethyl)phenyl]-5-methyl-triazol-4-yl]methoxy]-4,5-dimethyl-pyrimidine] yielded an IC50 [1] of 0.752 µM.

`CCc1cnc(OCc2cn(-c3cccc(C)n3)nn2)nc1` [Example 660, 5-Ethyl-2-[[1-(6-methyl-2-pyridyl)triazol-4-yl]methoxy]pyrimidine] showed an IC50 [1] of over 2.99 µM.

`Cc1nc(OCc2cn(-c3ccc(Cl)c(C(C)(F)F)c3)nn2)ncc1Cl` [Example 543, 5-Chloro-2-[[1-[4-chloro-3-(1,1-difluoroethyl)phenyl]triazol-4-yl]methoxy]-4-methyl-pyrimidine] showed an IC50 [1] of 0.015 µM.

For `FCCOc1cnc(OCc2cn(-c3ccc(F)c(Br)c3)nn2)nc1` [Example 618, 2-[[1-(3-Bromo-4-fluoro-phenyl)triazol-4-yl]methoxy]-5-(2-fluoroethoxy)pyrimidine], the IC50 [1] was 0.006 µM.

Work on `Cc1cc(C)cc(-n2cc(COc3ncccn3)nn2)c1` [Example 360, 2-[[1-(3,5-Dimethylphenyl)triazol-4-yl]methoxy]pyrimidine] yielded an IC50 [2] of 0.791 µM.

`Fc1ccc(-n2cc(COc3ncc(N4CCOCC4)cn3)nn2)cc1C(F)(F)F` [Example 456, 4-(2-((1-(4-Fluoro-3-(trifluoromethyl)phenyl)-1H-1,2,3-triazol-4-yl)methoxy)pyrimidin-5-yl)morpholine] showed an IC50 [1] of 0.5 µM.

`CCc1cnc(OCc2cn(-c3cc(C)c(F)cc3F)nn2)nc1` [Example 655, 2-[[1-(2,4-Difluoro-5-methyl-phenyl)triazol-4-yl]methoxy]-5-ethyl-pyrimidine] gave an IC50 [1] of 0.507 µM.

In the case of `FC(F)(F)Oc1cccc(-n2cc(COc3ncc(Cl)cn3)nn2)c1` [Example 350, 5-Chloro-2-[[1-[3-(trifluoromethoxy)phenyl]triazol-4-yl]methoxy]pyrimidine], the IC50 [2] is reported as 0.05 µM.

For `Cc1cnc(OCc2cn(-c3cc(C)ccc3F)nn2)nc1` [Example 484, 2-[[1-(2-Fluoro-5-methyl-phenyl)triazol-4-yl]methoxy]-5-methyl-pyrimidine], the IC50 [1] was 1 µM.

`CNC(=O)c1cnc(OCc2cn(-c3ccc(F)c(C(F)F)c3)nn2)nc1` [Example 409, 2-[[1-[3-(Difluoromethyl)-4-fluoro-phenyl]triazol-4-yl]methoxy]-N-methyl-pyrimidine-5-carboxamide] was tested, and the IC50 [1] was 0.149 µM.

Compound `Cc1cnc(OCc2cn(-c3ccc(F)c(C)c3F)nn2)nc1N` [Example 651, 2-[[1-(2,4-Difluoro-3-methyl-phenyl)triazol-4-yl]methoxy]-5-methyl-pyrimidin-4-amine] has an IC50 [1] of 0.262 µM.

In the case of `CC(O)c1cnc(OCc2cn(-c3ccc(Cl)c(C(C)(F)F)c3)nn2)nc1` (racemic) [Example 551, (R/S)-1-[2-[[1-[4-Chloro-3-(1,1-difluoroethyl)phenyl]triazol-4-yl]methoxy]pyrimidin-5-yl]ethanol], the IC50 [1] is reported as 0.014 µM.

In the case of `FC(F)Oc1cnc(OCc2cn(-c3cccc(C(F)F)c3)nn2)nc1` [Example 276, 5-(Difluoromethoxy)-2-[[1-[3-(difluoromethyl)phenyl]triazol-4-yl]methoxy]pyrimidine], the IC50 [2] is reported as 0.031 µM.

Compound `COc1ncccc1OCc1cn(-c2ccc(F)c(C(C)(F)F)c2)nn1` [Example 561, 3-[[1-[3-(1,1-Difluoroethyl)-4-fluoro-phenyl]triazol-4-yl]methoxy]-2-methoxy-pyridine] has an IC50 [1] of 0.476 µM.

Work on `FC(F)Oc1cccc(-n2cc(COc3ncccn3)nn2)c1` [Example 323, 2-[[1-[3-(Difluoromethoxy)phenyl]triazol-4-yl]methoxy]pyrimidine] yielded an IC50 [2] of 0.788 µM.

`CC(F)(F)c1cccc(-n2cc(COc3nccc(C(F)(F)F)n3)nn2)c1` [Example 304, 2-[[1-[3-(1,1-Difluoroethyl)phenyl]triazol-4-yl]methoxy]-4-(trifluoromethyl)pyrimidine] showed an IC50 [2] of 0.711 µM.

In the case of `FC(F)Oc1cc(-n2cc(COc3cnccn3)nn2)ccc1Cl` [Example 23, 2-[[1-[4-Chloro-3-(difluoromethoxy)phenyl]triazol-4-yl]methoxy]pyrazine], the IC50 [2] is reported as 0.456 µM.

Compound `CC(F)(F)c1cc(-n2cc(COc3ccccn3)nn2)ccc1F` [Example 554, 2-[[1-[3-(1,1-Difluoroethyl)-4-fluoro-phenyl]triazol-4-yl]methoxy]pyridine] has an IC50 [1] of 1.64 µM.

For `CC(F)(F)c1cccc(-n2cc(COc3nccc(N4CCCC4)n3)nn2)c1` [Example 322, 2-[[1-[3-(1,1-Difluoroethyl)phenyl]triazol-4-yl]methoxy]-4-pyrrolidin-1-yl-pyrimidine], the IC50 [2] was 0.011 µM.

`Cc1cnc(Cl)nc1OCc1cn(-c2cccc(C(F)F)c2)nn1` [Example 280, 2-Chloro-4-[[1-[3-(difluoromethyl)phenyl]triazol-4-yl]methoxy]-5-methyl-pyrimidine] gave an IC50 [2] of 0.173 µM.

Compound `FC(F)Oc1cc(-n2cc(COc3ncc(N4CC(F)(F)C4)cn3)nn2)ccc1Cl` [Example 393, 2-((1-(4-Chloro-3-(difluoromethoxy)phenyl)-1H-1,2,3-triazol-4-yl)methoxy)-5-(3,3-difluoroazetidin-1-yl)pyrimidine] has an IC50 [1] of 0.037 µM.

With `FC(F)Oc1cc(-n2cc(COc3ncc(Cl)cn3)nn2)ccc1Cl` [Example 28, 5-Chloro-2-[[1-[4-chloro-3-(difluoromethoxy)phenyl]triazol-4-yl]methoxy]pyrimidine] the IC50 [2] was 0.002 µM.

`Cc1cnc(OCc2cn(-c3cccc(C(F)F)c3)nn2)nc1N` [Example 161, 2-[[1-[3-(Difluoromethyl)phenyl]triazol-4-yl]methoxy]-5-methyl-pyrimidin-4-amine] was tested, and the IC50 [2] was 0.055 µM.

In the case of `FC(F)c1cc(-n2cc(CNc3ncc(C(F)(F)F)cn3)nn2)ccc1Cl` [Example 205, N-[[1-[4-Chloro-3-(difluoromethyl)phenyl]triazol-4-yl]methyl]-5-(trifluoromethyl)pyrimidin-2-amine], the IC50 [2] is reported as 0.616 µM.

`COc1cnc(OCc2cn(-c3cccc(C(F)F)c3)nn2)nc1` [Example 90, 2-[[1-[3-(Difluoromethyl)phenyl]triazol-4-yl]methoxy]-5-methoxy-pyrimidine] gave an IC50 [2] of 0.012 µM.

`CC(F)(F)c1cccc(-n2cc(COc3nccc(C(F)F)n3)nn2)c1` [Example 303, 2-[[1-[3-(1,1-Difluoroethyl)phenyl]triazol-4-yl]methoxy]-4-(difluoromethyl)pyrimidine] showed an IC50 [2] of 0.085 µM.

`COc1cnc(OCc2cn(-c3ccc(F)cc3C)nn2)nc1` [Example 488, 2-[[1-(4-Fluoro-2-methyl-phenyl)triazol-4-yl]methoxy]-5-methoxy-pyrimidine] showed an IC50 [1] of 2.65 µM.

For `Cc1c(F)ccc(-n2cc(COc3ncc(C(C)(C)O)cn3)nn2)c1F` [Example 644, 2-[2-[[1-(2,4-Difluoro-3-methyl-phenyl)triazol-4-yl]methoxy]pyrimidin-5-yl]propan-2-ol], the IC50 [1] was 0.967 µM.

`Cc1cccc(-n2cc(COc3ncc(Cl)c(C)n3)nn2)c1F` [Example 470, 5-Chloro-2-[[1-(2-fluoro-3-methyl-phenyl)triazol-4-yl]methoxy]-4-methyl-pyrimidine] showed an IC50 [1] of 0.659 µM.

Work on `Cc1cnc(OCc2nnn(-c3ccc(F)c(C(F)F)c3)c2I)nc1` [Example 425, 2-[[1-[3-(Difluoromethyl)-4-fluoro-phenyl]-5-iodo-triazol-4-yl]methoxy]-5-methyl-pyrimidine] yielded an IC50 [1] of 0.394 µM.

Compound `Cc1c(COc2ncc(C3CC3)cn2)nnn1-c1ccc(F)c(C(C)(F)F)c1` [Example 594, 5-Cyclopropyl-2-[[1-[3-(1,1-difluoroethyl)-4-fluoro-phenyl]-5-methyl-triazol-4-yl]methoxy]pyrimidine] has an IC50 [1] of 0.171 µM.
